PubChem BioAssay AID322 (DTP/NCI, 2004)
Where “and” joins values, the source holds several entries; their conditions need not be identical. Equal values may be shown once. Inconclusive results and toxic doses are left out. The calls were made as follows: active = survival T/C of 150% or more; inactive = T/C below 125% in these data.

Tested on: CD2F1 mice, P388/ADR leukemia ip, median survival T/C
Assay: NCI In Vivo Anticancer Drug Screen. Data for tumor model P388 Leukemia resistant to Adriamycin; NSC 123127, Developed at Scr 08 (intraperitoneal) in CD2F1 (CDF1) mice
Conditions: endpoint: median survival time, higher = longer survival
Protocol: The antitumor activity of compounds was measured in mice bearing transplantable tumors. Survival or tumor size were measured and the results are expressed as the measurement made in the treated group (T) divided by the measurement made in the vehicle treated control group (C). The tumor model used in this assay is P388 Leukemia resistant to Adriamycin; NSC 123127, Developed at Scr 08 (intraperitoneal) in CD2F1 (CDF1) mice

[1] = dose: 30.0 mg/kg/injection, schedule: Q01DX005 (ip), vehicle: saline
[2] = dose: 6.25 mg/kg/injection, schedule: Q01DX005 (ip), vehicle: saline with Tween-80
[3] = dose: 12.5 mg/kg/injection, schedule: Q01DX005 (ip), vehicle: saline with Tween-80
[4] = dose: 50.0 mg/kg/injection, schedule: Q01DX005 (ip), vehicle: saline with Tween-80
[5] = dose: 25.0 mg/kg/injection, schedule: Q01DX005 (ip), vehicle: saline with Tween-80
[6] = dose: 100.0 mg/kg/injection, schedule: Q01DX005 (ip), vehicle: saline with Tween-80
[7] = dose: 240.0 mg/kg/injection, schedule: Q01DX005 (ip), vehicle: saline with Tween-80

Measured: T/C

CNC(=O)OCc1nc(SC)n(C)c1COC(=O)NC
inactive: dose: 77.0 mg/kg/injection, schedule: Q01DX005 (ip), vehicle: saline 91 % of control
active: [1] 155 % of control | dose: 40.0 mg/kg/injection, schedule: Q01DX005 (ip), vehicle: saline 154 % of control | dose: 50.0 mg/kg/injection, schedule: Q01DX005 (ip), vehicle: saline 158 % of control | dose: 51.0 mg/kg/injection, schedule: Q01DX005 (ip), vehicle: saline 163 % of control | dose: 65.0 mg/kg/injection, schedule: Q01DX005 (ip), vehicle: saline 155 % of control

O=C1C=CC2OC(c3ccccc3)C(O)C2O1 (stereo not drawn)
inactive: [2] 101 % of control | [3] 114 % of control | [4] 119 % of control

Nc1ccc2ccc(NS(=O)(=O)N3CCCCC3)cc2c1
inactive: [5] 111 % of control | [4] 107 % of control | [6] 106 % of control | dose: 200.0 mg/kg/injection, schedule: Q01DX005 (ip), vehicle: saline with Tween-80 101 % of control | dose: 400.0 mg/kg/injection, schedule: Q01DX005 (ip), vehicle: saline with Tween-80 99 % of control

[CH3][Sn]([CH3])([Cl])[c]1cc[c]([Sn]([CH3])([CH3])[Cl])cc1
inactive: dose: 0.19 mg/kg/injection, schedule: Q01DX005 (ip), vehicle: suspension in saline 96 % of control | dose: 0.39 mg/kg/injection, schedule: Q01DX005 (ip), vehicle: suspension in saline 105 % of control | dose: 0.78 mg/kg/injection, schedule: Q01DX005 (ip), vehicle: suspension in saline 114 % of control | dose: 1.56 mg/kg/injection, schedule: Q01DX005 (ip), vehicle: suspension in saline 114 % of control

CN(C)[C@@H]1C(=O)C(C(=O)NCN2CCN(C(=N)N=C(N)N)CC2)=C(O)[C@@]2(O)C(=O)C3=C(O)c4c(O)cccc4[C@@](C)(O)[C@H]3C[C@@H]12
active: dose: 5.0 mg/kg/injection, schedule: Q01DX005 (ip), vehicle: saline 152 % of control
inactive: dose: 0.62 mg/kg/injection, schedule: Q01DX005 (ip), vehicle: saline 113 % of control | dose: 1.25 mg/kg/injection, schedule: Q01DX005 (ip), vehicle: saline 100 % of control | dose: 1.8 mg/kg/injection, schedule: Q01DX005 (ip), vehicle: suspension in saline 97 % of control | dose: 2.5 mg/kg/injection, schedule: Q01DX005 (ip), vehicle: saline 106 % of control | dose: 3.0 mg/kg/injection, schedule: Q01DX005 (ip), vehicle: suspension in saline 115 % of control | dose: 5.0 mg/kg/injection, schedule: Q01DX005 (ip), vehicle: suspension in saline 107 % of control

O=[N+]([O-])c1ccc([I+]c2ccccc2)cc1
active: [6] 155 % of control
inactive: [2] 124 % of control | [3] 124 % of control

BrC[P+](CBr)(CBr)CBr
inactive: [4] 109 % of control and 119 % of control | [6] 115 % of control | dose: 144.0 mg/kg/injection, schedule: Q01DX005 (ip), vehicle: saline with Tween-80 111 % of control | [7] 112 % of control
active: dose: 666.67 mg/kg/injection, schedule: Q01DX005 (ip), vehicle: saline with Tween-80 166 % of control

CC(=O)N(C)c1ccc(Nc2cc(C)[nH]c3ccc4ncnc4c23)cc1
inactive: [1] 98 % of control | dose: 44.0 mg/kg/injection, schedule: Q01DX005 (ip), vehicle: saline 114 % of control | dose: 100.0 mg/kg/injection, schedule: Q01DX005 (ip), vehicle: saline 122 % of control

CC[C@]1(O)C[C@H]2CN(CCc3c([nH]c4ccccc34)[C@@](C(=O)OC)(c3cc4c(cc3OC)N(C)[C@H]3[C@@](O)(C(=O)OC)[C@H](OC(C)=O)[C@]5(CC)C=CCN6CC[C@]43[C@@H]65)C2)C1
inactive: dose: 0.5 mg/kg/injection, schedule: Q04DX003 (ip), vehicle: saline 101 % of control | dose: 1.0 mg/kg/injection, schedule: Q04DX003 (ip), vehicle: saline 100 % of control | dose: 2.0 mg/kg/injection, schedule: Q04DX003 (ip), vehicle: saline 100 % of control | dose: 4.0 mg/kg/injection, schedule: Q04DX003 (ip), vehicle: saline 83 % of control | dose: 8.0 mg/kg/injection, schedule: Q04DX003 (ip), vehicle: saline 57 % of control

CC[C@@]1(O)CC(OC2CC(N3CCOCC3)C(O)C(C)O2)c2c(O)c3c(c(O)c2[C@H]1O)C(=O)c1cccc(O)c1C3=O (stereo partly drawn)
active: dose: 3.0 mg/kg/injection, schedule: Q04DX003 (iv), vehicle: saline 160 % of control

COc1cc2c(c3c1c(=O)c1ccccc1n3C)C=CC(C)(C)O2
inactive: [3] 115 % of control | [5] 87 % of control | [4] 90 % of control

c1ccc(OCC2CO2)c(OCC2CO2)c1 (stereo not drawn)
active: dose: 60.0 mg/kg/injection, schedule: Q01DX005 (ip), vehicle: saline with Tween-80 171 % of control | dose: 120.0 mg/kg/injection, schedule: Q01DX005 (ip), vehicle: saline with Tween-80 164 % of control and 167 % of control | [7] 252 % of control

O=NN(CCCl)C(=O)NCCCl
active: dose: 20.0 mg/kg/injection, schedule: Q01DX001 (ip), vehicle: saline + alcohol 150 % of control and 195 % of control | dose: 40.0 mg/kg/injection, schedule: Q01DX001 (ip), vehicle: saline + alcohol 270 % of control and 309 % of control
inactive: dose: 5.0 mg/kg/injection, schedule: Q01DX001 (ip), vehicle: saline + alcohol 108 % of control and 123 % of control | dose: 80.0 mg/kg/injection, schedule: Q01DX001 (ip), vehicle: saline + alcohol 90 % of control

COc1cc(NS(C)(=O)=O)ccc1Nc1c2ccccc2nc2ccccc12
inactive: dose: 1.25 mg/kg/injection, schedule: Q04DX003 (ip), vehicle: other 102 % of control | dose: 2.5 mg/kg/injection, schedule: Q04DX003 (ip), vehicle: other 109 % of control | dose: 2.59 mg/kg/injection, schedule: Q04DX003 (ip), vehicle: other 107 % of control | dose: 4.32 mg/kg/injection, schedule: Q04DX003 (ip), vehicle: other 107 % of control | dose: 5.0 mg/kg/injection, schedule: Q04DX003 (ip), vehicle: other 109 % of control | dose: 7.2 mg/kg/injection, schedule: Q04DX003 (ip), vehicle: other 104 % of control | dose: 10.0 mg/kg/injection, schedule: Q04DX003 (ip), vehicle: other 109 % of control | dose: 12.0 mg/kg/injection, schedule: Q04DX003 (ip), vehicle: other 106 % of control | dose: 20.0 mg/kg/injection, schedule: Q04DX003 (ip), vehicle: other 105 % of control and 113 % of control

N[C@@H](Cc1c[nH]c2ccccc12)C(=O)Nc1nncs1
inactive: dose: 18.75 mg/kg/injection, schedule: Q01DX005 (ip), vehicle: saline 99 % of control | dose: 37.5 mg/kg/injection, schedule: Q01DX005 (ip), vehicle: saline 96 % of control | dose: 75.0 mg/kg/injection, schedule: Q01DX005 (ip), vehicle: saline 90 % of control | dose: 150.0 mg/kg/injection, schedule: Q01DX005 (ip), vehicle: saline 92 % of control | dose: 300.0 mg/kg/injection, schedule: Q01DX005 (ip), vehicle: saline 96 % of control

CN1CCN(c2ccc3nc(-c4ccc5nc(-c6ccc(O)cc6)[nH]c5c4)[nH]c3c2)CC1
inactive: dose: 44.0 mg/kg/injection, schedule: Q01DX009 (ip), vehicle: saline 118 % of control | dose: 67.0 mg/kg/injection, schedule: Q01DX009 (ip), vehicle: saline 109 % of control | dose: 100.0 mg/kg/injection, schedule: Q01DX009 (ip), vehicle: saline 105 % of control | dose: 150.0 mg/kg/injection, schedule: Q01DX009 (ip), vehicle: saline 103 % of control

COc1cc([C@@H]2c3cc4c(cc3[C@@H](OC3OC5COC(C)OC5C(O)C3O)[C@H]3COC(=O)[C@H]23)OCO4)cc(OC)c1O (stereo partly drawn)
inactive: dose: 18.0 mg/kg/injection, schedule: Q04DX003 (ip), vehicle: Klucel (hydroxypropylcellulose) (HPC) 113 % of control | dose: 27.0 mg/kg/injection, schedule: Q04DX003 (ip), vehicle: Klucel (hydroxypropylcellulose) (HPC) 119 % of control | dose: 40.0 mg/kg/injection, schedule: Q04DX003 (ip), vehicle: Klucel (hydroxypropylcellulose) (HPC) 110 % of control
